Measurements taken from US9302999B2, “Substituted triazoles as herbicides” (E. I. DU PONT DE NEMOURS AND COMPANY, priority 2012, dated 2016).

Key:
Type in all cases: in vivo
kochia (Kochia scoparia) = test: Test D pre-/postemergence: kochia
In short: (§1)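 We sprayed chemicals in a surfactant-containing solvent onto silt loam at planting (preemergence) and onto 1- to 4-leaf seedlings (postemergence). Fourteen to 21 days later, each species was rated visually from 0 to 100 relative to controls.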

[1] = system: woolly cupgrass (Eriochloa villosa); test: Test C pre-/postemergence: woolly cupgrass
In short: (§2)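 Visual injury scored 0–100 (100 = complete control) against untreated controls after 13–15 greenhouse days. Surfactant-containing solvent formulations applied either to soil after sowing (loam/sand) or over 1- to 4-leaf plants, 2–18 cm tall.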

[2] = system: common (oilseed) sunflower (Helianthus annuus); test: Test C pre-/postemergence: sunflower; conditions: Preemergence
In short: as §2

[3] = system: oilseed rape (Brassica napus); test: Test D pre-/postemergence: oilseed rape
In short: as §1

rice (Oryza sativa) = test: Test B flooded paddy: rice; conditions: Flood; 250 g ai/ha; applied to paddy water at 2-leaf stage; visually evaluated after 13 to 15 days
In short: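 Each compound is applied to the floodwater of pots holding 2-leaf seedlings, water standing 3 cm over the soil throughout. Plants stay in a greenhouse 13 to 15 days before visual scoring against controls from 0 (no effect) to 100 (complete control).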

[4] = system: field violet (Viola arvensis); test: Test D pre-/postemergence: field violet; conditions: Postemergence
In short: as §1

[5] = system: cocklebur (common cocklebur, Xanthium strumarium); test: Test C pre-/postemergence: cocklebur
In short: as §2

[6] = system: deadnettle (henbit deadnettle, Lamium amplexicaule); test: Test D pre-/postemergence: deadnettle
In short: as §1

[7] = system: barley (winter barley, Hordeum vulgare); test: Test C postemergence: barley
In short: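 Seedlings are raised in pots of peat-based medium to 2–18 cm (1- to 4-leaf stage). The formulated compound is then applied postemergence. Plants stay in the greenhouse for 13 to 15 days and are rated visually against controls, where 0 means no effect and 100 complete control.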

[8] = Postemergence, 31 g ai/ha, scale 0 to 100 (0 no effect, 100 complete control)
[9] = Postemergence, 62 g ai/ha, scale 0 to 100 (0 no effect, 100 complete control)
[10] = Postemergence, 125 g ai/ha, scale 0 to 100, 0 no effect, 100 complete control
[11] = Postemergence, 250 g ai/ha, scale 0 to 100 (0 no effect, 100 complete control)
[12] = Postemergence, 16 g ai/ha, scale 0 to 100
[13] = Preemergence, 16 g ai/ha, scale 0 to 100 (0 no effect, 100 complete control)
[14] = Preemergence, 31 g ai/ha, scale 0 to 100 (0 no effect, 100 complete control)
[15] = Preemergence, 62 g ai/ha, scale 0 to 100
[16] = Preemergence, 125 g ai/ha, scale 0 to 100
[17] = Preemergence, 250 g ai/ha, scale 0 to 100
[18] = Postemergence, 250 g ai/ha, scale 0 to 100
[19] = Preemergence, 125 g ai/ha, scale 0 to 100, 0 no effect, 100 complete control
[20] = 125 g ai/ha, scale 0 to 100, 0 no effect, 100 complete control
[21] = 31 g ai/ha, scale 0 to 100 (0 no effect, 100 complete control)
[22] = 62 g ai/ha, scale 0 to 100 (0 no effect, 100 complete control)

CCOc1nn(-c2ccc(F)cc2)nc1Cc1ccnc(C(F)F)c1 [Compound 195]
50: Plant response rating, Kochia (kochia (Kochia scoparia); [14]) | Plant response rating, Cupgrass, Woolly [1, 8] | Plant response rating, Cocklebur [5, 18]
60: Plant response rating, Kochia (kochia (Kochia scoparia); [15]) | Plant response rating, Rice (0 to 100 scale, 0 is no effect, 100 is complete control) (rice (Oryza sativa)) | Plant response rating, Deadnettle [6, 12] | Plant response rating, Deadnettle [6, 13] | Plant response rating, Deadnettle [6, 14] | Plant response rating, Deadnettle [6, 15]
80: Plant response rating, Kochia (kochia (Kochia scoparia); [16])
0: Plant response rating, Sunflower ([2]; 31 g ai/ha, scale 0 (no effect) to 100 (complete control)) | Plant response rating, Oilseed Rape [3, 13] | Plant response rating, Oilseed Rape [3, 14] | Plant response rating, Oilseed Rape [3, 15] | Plant response rating, Cocklebur [5, 19]
75: Plant response rating, Cupgrass, Woolly [1, 10] | Plant response rating, Cupgrass, Woolly [1, 18] | Plant response rating: Field Violet [4, 22] | Plant response rating: Deadnettle [6, 9] | Plant response rating: Deadnettle [6, 10]
20: Plant response rating, Cupgrass, Woolly ([1]; Preemergence, 31 g ai/ha, scale 0 (no effect) to 100 (complete control)) | Plant response rating, Sunflower ([2]; 250 g ai/ha, scale 0 to 100, 0 no effect, 100 complete control) | Plant response rating, Oilseed Rape [3, 17] | Plant response rating, Barley [7, 22]
85: Plant response rating: Kochia (kochia (Kochia scoparia); [8]) | Plant response rating, Kochia (kochia (Kochia scoparia); [17]) | Plant response rating: Oilseed Rape [3, 8] | Plant response rating: Field Violet [4, 20]
95: Plant response rating: Kochia (kochia (Kochia scoparia); [9]) | Plant response rating, Cupgrass, Woolly ([1]; Preemergence, 62 g ai/ha, scale of 0 to 100, 0 is no effect, 100 is complete control) | Plant response rating, Cupgrass, Woolly [1, 19] | Plant response rating: Oilseed Rape [3, 9] | Plant response rating: Field Violet ([4]; 250 g ai/ha, scale 0 to 100 (0 no effect, 100 complete control))
15: Plant response rating, Sunflower ([2]; 62 g ai/ha, scale of 0 to 100, 0 is no effect, 100 is complete control) | Plant response rating, Sunflower [2, 20] | Plant response rating, Barley [7, 21]
98: Plant response rating, Cupgrass, Woolly ([1]; Preemergence, 250 g ai/ha, scale 0 to 100, 0 no effect, 100 complete control)
40: Plant response rating, Kochia (kochia (Kochia scoparia); [13])
90: Plant response rating: Deadnettle [6, 11]
35: Plant response rating, Barley [7, 20] | Plant response rating, Barley ([7]; 250 g ai/ha, scale 0 to 100)
70: Plant response rating, Kochia (kochia (Kochia scoparia); [12]) | Plant response rating, Oilseed Rape [3, 12] | Plant response rating: Field Violet [4, 21] | Plant response rating, Field Violet ([4]; 16 g ai/ha, scale 0 to 100)
100: Plant response rating: Kochia (kochia (Kochia scoparia); [10]) | Plant response rating: Kochia (kochia (Kochia scoparia); [11]) | Plant response rating: Oilseed Rape [3, 10] | Plant response rating: Oilseed Rape [3, 11] | Plant response rating, Deadnettle [6, 16] | Plant response rating, Deadnettle [6, 17]
10: Plant response rating, Oilseed Rape [3, 16]
65: Plant response rating, Cupgrass, Woolly [1, 9] | Plant response rating: Deadnettle [6, 8]
